From patent publication EP2508186A1, “Phenoxazinones or phenothiazones as inhibitors of amyloid formation” (Max-Delbrück-Centrum für Molekulare Medizin, priority 2011, dated 2012)

Assays:
Aβ42 [1] = biological target: T1, Aβ42 (Homo sapiens, UniProt P05067); assay: Membrane filter retardation assay (FRA) of Aβ42 aggregation; format: biochemical
T1 construct: the amyloid-β 1-42 (Aβ42) peptide
Procedure: 2.1.1. Protein aggregation. For aggregation reactions, Aβ42 stock solution (1 mM in DMSO) was diluted in phosphate buffer (100 mM sodium phosphate, 10 mM NaCl, pH 7.4) to 15 µM and incubated in 1.5 ml Eppendorf tubes (Eppendorf, Germany) at 37°C. Generation of soluble Aβ42 oligomers was performed as described (Lambert, 1998). Aβ42 DMSO stock solutions were diluted in Ham's F12 medium without phenol red (Biosource) at a final peptide concentration of 100 µM, with or without test compounds. After brief vortexing, samples were incubated at 4-6°C for 24 h. […]
2.1.2. […] Aggregates retained on the filter membrane were detected using the 6E10 antibody (1 : 5.000) (Sigma, Deisenhofen, Germany), and secondary antibodies conjugated to either horseradish peroxidase or alkaline phosphatase (Promega, Germany). […] After 30 min incubation at 37°C with proteinase K, samples were denatured and analyzed by FRA.
2.2.1 Identification of small molecules that stimulate Aβ42 aggregation. In order to find chemical compounds that promote Aβ42 amyloidogenesis, a membrane filter retardation assay (FRA) was established that allows the identification of large, insoluble protein aggregates, while monomers and small, soluble oligomers are not detected (Fig. 1). […]

primary cortical neurons = assay: Aβ42 toxicity in primary cortical neurons; format: cell-based; conditions: after addition of 04 to neuronal cultures
[2] = system: SH-SY5Y neuroblastoma cells; assay: MTT assay of Aβ42 toxicity; format: cell-based; conditions: Aβ42 5 µM, different concentrations of 04, 48 h; Aβ42 alone ∼50% inhibition
Procedure: 2.2.8. 04-mediated acceleration of amyloidogenesis reduces Aβ42 toxicity in cell-based assays and brain slices. To study whether O4-mediated conversion of aggregation intermediates into stable amyloid fibrils influences Aβ42 toxicity, SH-SY5Y neuroblastoma cells were incubated for 48 h with soluble Aβ42 peptides and different concentrations of 04. Viability of cells was examined using a 3-(4,5-dimethylthiazol-2yl)-2,5-diphenyltetrazolium bromide (MTT) assay (Hansen, 1989).

Aβ42 peptides [3] = assay: Binding to Aβ42 10-mer peptide array and short peptides; conditions: 04 300 µM, 33 peptides overlapping by 9 residues, colorimetric
Procedure: (§1) 2.2.5. 04 binds preferentially to hydrophobic regions in Aβ42 peptides. To define potential 04 binding regions in Aβ42 peptides an array of 33 synthetic peptides representing the complete Aβ42 sequence was prepared (Beutling, 2008) and probed for an interaction with the chemical compound. Each synthetic peptide was composed of 10 amino acids, which overlapped in sequence with the next peptide by 9 residues.
(§2) We next investigated whether the position of hydrophobic amino acids in the Aβ42 peptide sequence influences 04 binding. Two short peptides containing aromatic residues were synthesized (A: KLVFFAE, aa 16-22 of Aβ42 and B: EFAVFLK, a scrambled version of A) and 04 binding was quantified colorimetrically.

Aβ42 peptides [4] = biological target: T2, Aβ42 peptides (Homo sapiens, UniProt P05067); assay: as above; conditions: dot blot, colorimetric, n = 4
T2 construct: made in house; spotted short peptides
Procedure: as §1, §2

[5] = system: hippocampal rat brain slices; assay: Hippocampal long-term potentiation (LTP) in brain slices, CA1 area; conditions: Aβ42 monomers and small oligomers added to slices, with 04; LTP evoked by high-frequency stimulation
Procedure: Finally, we investigated whether 04 treatment influences Aβ42-mediated impairment of hippocampal long-term potentiation (LTP) in rat brain slices (Wang, 2004; Walsh, 2002). A preparation of Aβ42 peptides containing monomers and small oligomers was added to hippocampal brain slices and LTP was measured in the CA1 area.

Aβ42 [6] = biological target: T1, Aβ42; assay: Circular dichroism (CD) spectroscopy of Aβ42 β-sheet formation; format: biochemical; conditions: Aβ42 15 µM, phosphate buffer
Excerpt: Therefore, we investigated whether 04 treatment influences the structure of Aβ42 amyloid fibrils using circular dichroism (CD) spectroscopy (Ehrnhoefer, 2008).
Next, the conversion of unstructured Aβ42 monomers into β-sheet-rich early aggregates was investigated. The change in CD signal at 218 nm over the course of 3,000 s was monitored for 04-treated and untreated Aβ42 peptides.
A monoexponential data fit yielded a time constant of τ = 150 ± 40 s for O4-treated samples, while a time constant of τ = 350 ± 30 s was obtained for untreated samples.

Aβ42 aggregates = biological target: T3, Aβ42 aggregates (Homo sapiens, UniProt P05067); assay: Dot blot assays of Aβ42 aggregates with antibodies 4G8, 6E10 and B10; format: biochemical; conditions: Aβ42 15 µM
T3 construct: the amyloid-β 1-42 (Aβ42) peptide
T3 sequence (P05067 672-713 limits assumed): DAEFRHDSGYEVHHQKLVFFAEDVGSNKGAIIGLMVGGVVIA
Procedure: 2.2.6. 04-generated amyloid fibrils have altered surface properties. We next examined whether 04 treatment influences the morphology of mature amyloid fibrils. […] of chemical compound and the resulting aggregates were analyzed with dot blot assays using the monoclonal antibodies 6E10 and 4G8, which specifically recognize amino acids 4-9 and 18-22 in Aβ42 peptides, respectively (Kim, 1988).
To confirm the observation that 04 alters surface properties of Aβ42 aggregates, we also examined whether 04-generated Aβ42 aggregates can be detected with the conformation specific antibody B10, which preferentially recognizes mature, β-sheet-rich amyloid fibrils and protofibrils, while monomers and low molecular oligomers are less efficiently detected (Habicht, 2007).

[7] = biological target: T4, A11-reactive amyloid oligomers (Homo sapiens, UniProt P05067); assay: Dot blot assay with conformation-specific antibody A11; format: biochemical; conditions: Aβ42 15 µM, 48 h at 37°C, 04 at 1:1 or 5:1 molar ratio
T4 construct: the amyloid-β 1-42 (Aβ42) peptide
T4 sequence (P05067 672-713 limits assumed): as above
Procedure: Finally, we examined the effect of 04 on potentially toxic amyloid oligomers that are recognized by the conformation-specific antibody A11 (Kayed, 2003). Soluble Aβ42 peptides were incubated in the presence and absence of 04 for 48 h at 37°C and the resulting aggregate species were analyzed by dot blot assays.

T1 sequence (P05067 672-713 limits assumed): as above

time constant τ of β-sheet formation (ellipticity at 218 nm) (Aβ42 [6]; 04 75 µM, 37°C, monoexponential decay fit, control 350 ± 30 nm): 150 ± 40 s
time constant τ of β-sheet formation (CD signal at 218 nm) (Aβ42 [6]; 04 75 µM, 37°C, monoexponential fit, untreated 350 ± 30 s): 150 ± 40 s
B10 antibody binding to Aβ42 aggregates (Aβ42 aggregates; 48 h at 37°C, increasing concentrations of 04): reduced B10 binding ability
Compound: O=c1cc2oc3cc(O)c(-c4ccc(O)cc4O)cc3nc-2cc1-c1ccc(O)cc1O [Compound 04, 2,8-bis-(2,4-dihydroxyphenyl)-7-hydroxy-phenoxazin-3-one]
formation of SDS-stable insoluble Aβ42 aggregates (Aβ42 [1]; Aβ42 15 µM, equimolar or 5-fold molar excess of compound, detection with 6E10 antibody): promotes spontaneous assembly of Aβ42 insoluble aggregates in a concentration-dependent manner
proteinase K resistance of Aβ42 aggregates (Aβ42 [1]; aggregates generated 4 and 7 d at 37°C with or without 04 (15 µM), proteinase K 10-200 µg/ml, 30 min at 37°C): more proteinase K resistant than untreated aggregates
Aβ42-mediated cellular toxicity (primary cortical neurons): significantly reduced
Aβ42-caused inhibition of MTT reduction [2]: suppressed in a concentration-dependent manner
binding to 10-mer peptide array of the Aβ42 sequence (Aβ42 peptides [3]): most strongly interacts with Aβ42 peptides, which contain non-polar, hydrophobic amino acids
binding to peptide A (KLVFFAE, aa 16-22) and scrambled peptide B (EFAVFLK) (Aβ42 peptides [4]): readily interacts with peptide A but not with the control peptide B
Aβ42 oligomer block of LTP [5]: suppressed
CD spectra of Aβ42 fibrils (Aβ42 [6]; equimolar 04, 37°C): CD spectra characteristic of β-sheet-rich amyloid structures
recognition of Aβ42 aggregates by 4G8 antibody (Aβ42 aggregates; 5 d at 37°C with or without 04, no such effect with 6E10): less efficiently recognized by the 4G8 antibody
A11-reactive oligomers [7]: detected in the absence but not in the presence of the chemical compound
